Measurements reported in ChEMBL document CHEMBL5154836, “4,5-Dihydroxypyrimidine Methyl Carboxylates, Carboxylic Acids, and Carboxamides as Inhibitors of Human Cytomegalovirus pUL89 Endonuclease” (J Med Chem, 2022).
In brackets after ≈: the same amount, converted by molar mass.

How the values were obtained:
[1] = molecular target: T1, Tripartite terminase subunit 3 (Human betaherpesvirus 5, UniProt P16732)
T1 sequence (P16732 whole entry): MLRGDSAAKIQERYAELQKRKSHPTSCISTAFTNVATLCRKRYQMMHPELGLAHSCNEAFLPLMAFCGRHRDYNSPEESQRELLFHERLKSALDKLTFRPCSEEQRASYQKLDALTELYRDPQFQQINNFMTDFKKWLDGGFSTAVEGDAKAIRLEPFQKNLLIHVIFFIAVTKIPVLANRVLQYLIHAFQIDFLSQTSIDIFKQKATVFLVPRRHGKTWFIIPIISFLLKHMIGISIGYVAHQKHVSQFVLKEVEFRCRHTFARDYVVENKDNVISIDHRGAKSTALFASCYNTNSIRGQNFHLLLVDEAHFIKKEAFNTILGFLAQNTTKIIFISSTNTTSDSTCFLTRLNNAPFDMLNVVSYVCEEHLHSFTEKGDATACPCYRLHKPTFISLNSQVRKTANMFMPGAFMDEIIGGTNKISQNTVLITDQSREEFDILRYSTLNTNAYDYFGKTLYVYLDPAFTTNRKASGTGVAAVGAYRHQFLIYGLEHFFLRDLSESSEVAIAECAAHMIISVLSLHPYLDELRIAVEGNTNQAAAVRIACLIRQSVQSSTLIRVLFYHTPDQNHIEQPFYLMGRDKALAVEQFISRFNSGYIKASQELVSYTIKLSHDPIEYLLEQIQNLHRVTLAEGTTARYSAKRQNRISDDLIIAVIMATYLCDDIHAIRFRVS

[2] = Stability of compound in human plasma as compound remaining measured for 6 hrs by LC-MS/MS analysis; assay type: ADME, cell-free; details: read-out: Stability
[3] = human, microsomes, 1 h
Description: Stability in human liver microsomes assessed as half life measured upto 60 mins in presence of NADPH by LC-MS/MS analysis

[4] = Stability of compound in CD-1 mouse plasma as compound remaining measured for 6 hrs by LC-MS/MS analysis; assay type: ADME, cell-free; details: read-out: Stability
[5] = human, plasma, 24 h
HFF = test: Cytotoxicity against HFF cells assessed as cell viability incubated for 168 hrs by MTS-based Cell Titer assay; assay type: toxicity; details: human
[6] = mouse, microsomes, 1 h
Description: Stability in mouse liver microsomes assessed as half life measured upto 60 mins in presence of NADPH by LC-MS/MS analysis

[7] = Aqueous solubility of the compound in DPBS at pH 7.2 incubated for 72 hrs by LC-MS/MS analysis; assay type: physicochemical
[8] = mouse, plasma, 24 h
[9] = Apparent permeability coefficient of the compound incubated for 5 hrs by LC-MS/MS analysis based PAMPA method; assay type: ADME

Row | Compound | IC50 [1] [nM] | further results
1 | O=C(O)c1nc(-c2ccsc2)nc(O)c1O | 2700 | 
2 | O=C(O)c1nc(Cc2ccc(F)cc2)[nH]c(=O)c1O | 740 | 
3 | O=C(O)c1nc(-c2cccs2)nc(O)c1O |  | remaining at 6 h [2]: > 94%; t1/2 [3]: > 120 h; remaining at 6 h [4]: > 94%; t1/2 [5]: > 24 h; CC50 (HFF): > 100000 nM; t1/2 [6]: > 120 h; solubility thermodynamic at 72 h [7]: 1480 µM (≈ 352 µg/mL); t1/2 [8]: > 24 h
4 | COC(=O)c1nc(-c2cccs2)nc(O)c1O | 880 | permeability [9]: 0.9 10^-6 cm/s
5 | O=C(NCc1ccc(F)cc1)c1nc(-c2cccs2)nc(O)c1O | 700 | 
6 | O=C(NCc1ccc(Cl)cc1)c1nc(-c2cccs2)nc(O)c1O | 1300 | 
7 | Cc1ccc(CNC(=O)c2nc(-c3cccs3)nc(O)c2O)cc1 | 1900 | 
8 | COC(=O)c1nc(-c2ccccc2)[nH]c(=O)c1O | 1100 | 
9 | Cc1ccsc1-c1nc(O)c(O)c(C(=O)O)n1 | 1400 | 
10 | Cc1nc(C(=O)O)c(O)c(=O)[nH]1 | 2100 | 
11 | COC(=O)c1nc(-c2ccc(F)cc2)[nH]c(=O)c1O | 860 | 
12 | O=C(O)c1nc(Cc2ccsc2)[nH]c(=O)c1O | 2400 | 
13 | COC(=O)c1nc(Cc2ccc(Cl)c(Cl)c2)[nH]c(=O)c1O | 2100 | permeability [9]: 3.1 10^-6 cm/s
14 | Cc1ccc(Cc2nc(C(=O)O)c(O)c(=O)[nH]2)cc1 | 920 | permeability [9]: 0.07 10^-6 cm/s
15 | COC(=O)c1nc(Cc2ccc(Cl)cc2Cl)[nH]c(=O)c1O | 5700 | 
16 | O=C(O)c1nc(-c2ccc(F)cc2)[nH]c(=O)c1O | 540 | 
17 | COC(=O)c1nc(-c2ccco2)[nH]c(=O)c1O | 3000 | 
18 | Cc1nc(C(=O)NCc2ccc(Cl)c(Cl)c2)c(O)c(=O)[nH]1 | 2800 | 
19 | O=C(O)c1nc(-c2ccc(-c3ccccc3)cc2)[nH]c(=O)c1O | 1500 | permeability [9]: 0.06 10^-6 cm/s
20 | O=C(NCc1ccc(F)c(F)c1)c1nc(-c2cccs2)[nH]c(=O)c1O | 790 | 
21 | O=C(O)c1nc(Cc2ccc(F)c(F)c2)[nH]c(=O)c1O | 870 | 
22 | O=C(NCc1ccc(C(F)(F)F)cc1)c1nc(-c2cccs2)[nH]c(=O)c1O | 3000 | 
23 | O=C(O)c1nc(Cc2ccc(Cl)cc2Cl)[nH]c(=O)c1O | 3800 | 
24 | O=C(O)c1nc(Cc2cccs2)[nH]c(=O)c1O | 1700 | 
25 | COC(=O)c1nc(Cc2ccc(F)cc2F)[nH]c(=O)c1O | 760 | 
26 | COC(=O)c1nc(-c2ccc(-c3ccccc3)cc2)[nH]c(=O)c1O | 780 | 
27 | COc1ccc(CNC(=O)c2nc(C)[nH]c(=O)c2O)cc1 | 590 | permeability [9]: 12.4 10^-6 cm/s
28 | O=C(O)c1nc(Cc2ccc(F)cc2F)[nH]c(=O)c1O | 1400 | 
29 | O=C(O)c1nc(Cc2ccc(Cl)c(Cl)c2)nc(O)c1O | 670 | remaining at 6 h [2]: > 94%; t1/2 [3]: > 120 h; permeability [9]: 0.05 10^-6 cm/s; remaining at 6 h [4]: > 94%; t1/2 [5]: > 24 h; t1/2 [6]: > 120 h; solubility thermodynamic at 72 h [7]: ≥ 3170 µM; t1/2 [8]: > 24 h
